Consider one compound from patent US20080269282A1, “Compounds for Inhibiting Copper-Containing Amine Oxidases and Uses Thereof” (GENMEDICA THERAPEUTICS SL, priority 2004, published 2008).

Molecules are shown by their SMILES.

This test deals with T1, Human SSAO (Homo sapiens, UniProt Q16853).
T1 construct: Human or mice adipose tissue homogenates, used as a source of SSAO activity; from tissue; host or cells: human adipose tissue homogenate
T1 sequence (Q16853 1-763): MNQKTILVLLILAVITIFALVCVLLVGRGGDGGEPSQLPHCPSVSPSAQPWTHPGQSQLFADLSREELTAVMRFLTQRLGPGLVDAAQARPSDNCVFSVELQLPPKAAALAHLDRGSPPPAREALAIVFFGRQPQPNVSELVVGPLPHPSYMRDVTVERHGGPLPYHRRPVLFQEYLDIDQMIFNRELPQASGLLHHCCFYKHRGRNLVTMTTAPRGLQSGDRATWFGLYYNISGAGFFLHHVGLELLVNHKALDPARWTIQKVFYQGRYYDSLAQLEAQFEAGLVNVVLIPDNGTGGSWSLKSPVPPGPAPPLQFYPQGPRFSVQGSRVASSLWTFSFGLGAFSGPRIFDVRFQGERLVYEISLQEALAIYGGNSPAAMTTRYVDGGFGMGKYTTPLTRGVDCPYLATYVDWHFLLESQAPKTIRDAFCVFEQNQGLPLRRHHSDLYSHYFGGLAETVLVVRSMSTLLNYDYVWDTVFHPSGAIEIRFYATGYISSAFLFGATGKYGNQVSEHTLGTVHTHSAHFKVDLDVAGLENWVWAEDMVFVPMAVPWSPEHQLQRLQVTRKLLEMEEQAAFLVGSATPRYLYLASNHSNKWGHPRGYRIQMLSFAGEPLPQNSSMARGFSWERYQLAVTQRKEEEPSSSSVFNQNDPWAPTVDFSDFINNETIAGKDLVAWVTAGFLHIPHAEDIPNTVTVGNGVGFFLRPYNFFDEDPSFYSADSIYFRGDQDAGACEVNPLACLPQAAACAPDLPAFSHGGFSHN
Nature of the test: SSAO activity determination (Amplex Red/HRP detection of H2O2 from benzylamine oxidation). Conditions: human adipose tissue homogenate, benzylamine substrate, 37° C., 20 min preincubation. In kind it is biochemical. The protocol: SSAO activity determination: All assays were performed at 37° C. with SSAO from human or mice adipose tissue. The enzyme activity was measured through detection of hydrogen peroxide formed by the oxidation of benzylamine. This method is based on the horseradish peroxidase catalyzed hydrogen peroxide oxidation of 10-acetyl-3,7-dihydroxyphenoxazine (Molecular Probes A-6550), that produces resorufin a highly fluorescent product (excitation, 545 nm; emission, 590 nm) (Zhou and Panchuk-Voloshina, 1997). Human or mice adipose tissue homogenates, used as a source of SSAO activity, were preincubated in 96 well microplates for 20 min at 37° C. in 180 μL of 200 mM Phosphate buffer and H2O2-detecting mixture containing horseradish peroxidase (final concentration 1 U/mL) and Amplex Red reagent (60 μM) and different concentrations of inhibitors when necessary. […] Fluorescence intensity of the samples was measured continuously during 1 h (excitation, 545 nm; emission, 590 nm) and H2O2 concentration was calculated from calibration curves generated by serial dilutions of standard H2O2. […]
The inhibition was measured as % decrease of the signal compared to a control without inhibitor. Blank values in absence of substrates were subtracted from the fluorescence for each experimental condition. The IC50 shown in Table 1 were calculated with GraphPad Prism 4 program.

The compound `Cc1[nH]c2ccccc2c1CC(=O)NCC(=O)NO` [compound 4] showed a half-inhibitory concentration (IC50) of 0.033 ± 0.006 µM.

Broadly, the IC50 is the concentration that inhibits the measured activity by half. A high value points to weaker potency in that assay.
